Test [1] has as its system patients with schizophrenia. Put plainly: Pilot study of AA alone in five patients with schizophrenia. The test is classed as in vivo, human. As to conditions: AA given alone. From the text: This interpretation was supported by a pilot study in which AA itself was given to five patients with schizophrenia. […] The administration of AA, without EPA to inhibit phospholipases, may lead to increased formation of eicosanoids rather than to incorporation of AA into phospholipids.

The test system of test [2] is patients with schizophrenia. Put plainly: AA given to two patients who had already been taking EPA. As to conditions: AA 1 g/day added in two patients already taking 2 g/day EPA for 3 months. Format: in vivo, human. From the text:
The conclusion to be drawn from these studies is that EPA is desirable, not in itself but because it raises the AA level in membrane phospholipids. High doses of EPA, far from being valuable in themselves, may be undesirable because they lead to excessive loss of AA from membranes. The way to get around this issue, and to boost the clearly desirable effects of EPA, is to keep to relatively low doses of EPA, but also to boost the level of AA by administering the EPA with either AA or one of its precursors, DGLA or gamma-linolenic acid GLA.

In test [3] the test system is schizophrenia in patients. Put plainly: Trial of placebo and three doses of EPA in schizophrenia patients also taking clozapine, assessed by PANSS at baseline and 12 weeks. The test is classed as in vivo, human. The protocol: A trial was conducted of the administration of a placebo and three different doses of EPA, 1 g, 2 g and 4 g/day in the treatment of schizophrenia in patients who were also taking the antischizophrenic drug clozapine. […] 31 patents were entered into the study and followed for 12 weeks. They were assessed at baseline and 12 weeks using the Positive and Negative Symptom Scale for Schizophrenia (PANSS). Placebo produced a small effect, 1 g/day produced a larger effect, 2 g/day produced a large effect of 26.0% compared to the usual 15-20% improvements on this scale generated by existing drugs for schizophrenia.

Test [4] is classed as in vivo, human. To be noted: + means a rise, − a fall. The protocol:
In these patients, and also in a further series of patients, the levels of DGLA, AA, EPA and DHA were measured in human red cells before starting treatment and after 12 weeks. As expected there was a dose-related rise in EPA which was greater the greater the dose. It was also expected that there would be a progressive decline in AA, the larger the EPA dose, the greater the fall in AA.

Where two headings read alike, the source gives them in different places.

Data on 3 molecules can be found in patent US6479544B1, “Therapeutic combinations of fatty acids” (Laxdale Limited, priority 2001, dated 2002).

For `CCCCC/C=C\C/C=C\C/C=C\C/C=C\CCCC(=O)O` [AA, arachidonic acid], the “Condition of patients with schizophrenia” value in test [1] is recorded as “their condition deteriorated”; in test [2] it was “substantial further improvement”.
Regarding `CC/C=C\C/C=C\C/C=C\C/C=C\C/C=C\CCCC(=O)O` [EPA, eicosapentaenoic acid], the “Percentage improvement from baseline to 12 weeks on PANSS” value in test [3] (2 g/day) came to 26.0%.
Turning to `CC/C=C\C/C=C\C/C=C\C/C=C\C/C=C\CCCC(=O)OCC` [ethyl eicosapentaenoate], the “Percentage improvement from baseline to 12 weeks on PANSS” value in test [3] (1 g/day) is on record as 18.3%; in test [3] (2 g/day), 26.0%; in test [3] (4 g/day), 16.3%. Further, the “Change from baseline to 12 weeks in red cell concentration of AA” value in test [4] (1 g/d) is “+2.7 μg/g”; in test [4] (2 g/d), “+29.4 μg/g”; in test [4] (4 g/d) it was -26.5 µg/g.
